Our source for the IC50 values is US20240000767A1, “COMBINATION OF AN ALPHA2-ADRENOCEPTOR SUBTYPE C (ALPHA-2C) ANTAGONIST WITH A TASK1/3 CHANNEL BLOCKER FOR THE TREATMENT OF SLEEP APNEA” (Bayer Aktiengesellschaft, priority 2020, published 2024).

Chain of human ADRA2C receptor (P18825 whole entry): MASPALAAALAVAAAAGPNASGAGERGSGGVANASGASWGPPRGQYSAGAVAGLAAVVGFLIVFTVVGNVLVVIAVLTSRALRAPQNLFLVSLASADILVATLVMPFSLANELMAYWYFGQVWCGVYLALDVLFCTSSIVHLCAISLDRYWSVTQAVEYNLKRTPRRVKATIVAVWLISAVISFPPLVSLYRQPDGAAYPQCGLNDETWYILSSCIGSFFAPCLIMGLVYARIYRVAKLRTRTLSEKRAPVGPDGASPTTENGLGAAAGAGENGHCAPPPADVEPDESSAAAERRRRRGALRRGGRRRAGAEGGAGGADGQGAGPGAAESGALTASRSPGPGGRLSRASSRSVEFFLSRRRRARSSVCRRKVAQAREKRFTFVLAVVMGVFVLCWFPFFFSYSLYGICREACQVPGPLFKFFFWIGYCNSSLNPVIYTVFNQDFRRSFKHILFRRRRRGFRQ

This experiment addresses human ADRA2C receptor (Homo sapiens (Human), UniProt P18825). Description: In vitro activity assay to determine the inhibition of recombinant ADRA2C (CHO-K1 cells, aequorin bioluminescence). It counts as cell-based. The following applies: inhibition of noradrenaline-induced bioluminescence signal; some mean values from multiple determinations; read-out: ARα2C IC50. The procedure:
B-2. In Vitro Activity Assay to Determine the Inhibition of Recombinant ADRA2C
The human ADRA2C receptor belongs to the G protein(guanine-dependent protein)-coupled receptors, the main function of which is the transduction of signals into the interior of the cell.
The investigations of the inhibition of the recombinant human ADRA2C receptors were carried out with stabily transfected CHO-K1 cells coexpressing the Gaq protein and the calcium-sensitive photoprotein aequorin. In this recombinant system, binding of the agonists noradrenaline to the ADRA2C receptor leads, after activation of a signal cascade, to calcium release from intracellular stores, which is detected by the intracellular calcium sensor aequorin as a bioluminescent signal. The method is described in detail in the reference below. [Wunder F., Kalthof B., Muller T., Hueser J. Functional Cell-Based Assays in Microliter Volumes for Ultra-High Throughput Screening. Combinatorial Chemistry & High Throughput Screening, Volume 11, Number 7, 2008, pp. 495-504(10). doi.org/10.2174/138620708785204054]
The activity of the test substances was determined via their ability to inhibit the agonist-induced increase of the bioluminescence signal. The concentration which can block half of this signal increase is referred to as IC50. The IC50 value is calculated using the 4 parameter logistic function (Hill function):
Top=upper threshold, Bottom=lower threshold, Slope=slope, IC50=turning point
As for `C[C@@H]1CCCN(C2CCN(c3ncc(C(=O)NCc4ncc(F)cc4F)s3)CC2F)C1` (mixture of isomers) [Example 50, diamix-N-[(3,5-Difluoropyridin-2-yl)methyl]-2-[(3R)-3′-fluoro-3-methyl[1,4′-bipiperidin]-1′-yl]-1,3-thiazole-5-carboxamide], the IC50 (in general, the point on the concentration scale where inhibition reaches its midpoint) came out at 73.5 nM.

For the compound `CC(NC(=O)c1cnc(N2CCC(N3CCC[C@@H](C)C3)CC2)s1)c1ncc(F)cc1F` (mixture of isomers) [Example 55, diamix-N-[1-(3,5-Difluoropyridin-2-yl)ethyl]-2-[(3R)-3-methyl[1,4′-bipiperidin]-1′-yl]-1,3-thiazole-5-carboxamide], the IC50 amounted to 150 nM.

Consider `C[C@@H]1CCCN(C2CCN(c3nc(C(=O)NCc4ncc(F)cc4F)cs3)CC2F)C1` (mixture of isomers) [Example 111, diamix-N-[(3,5-Difluoropyridin-2-yl)methyl]-2-[(3R)-3′-fluoro-3-methyl[1,4′-bipiperidin]-1′-yl]-1,3-thiazole-4-carboxamide], for which the IC50 was determined as 0.49 nM.

As to `C[C@@H]1CCCN(C2CCN(c3nc(C(=O)NCc4ncc(F)cc4F)co3)CC2F)C1` (mixture of isomers) [Example 112, diamix-N-[(3,5-Difluoropyridin-2-yl)methyl]-2-[(3R)-3′-fluoro-3-methyl[1,4′-bipiperidin]-1′-yl]-1,3-oxazole-4-carboxamide], the IC50 was 1.2 nM.

For the compound `C[C@@H]1CCCN(C2CCN(c3ncc(C(=O)NCc4cc(Cl)ccc4F)s3)CC2F)C1` (mixture of isomers) [Example 113, diamix-N-(5-Chloro-2-fluorobenzyl)-2-[(3R)-3′-fluoro-3-methyl[1,4′-bipiperidin]-1′-yl]-1,3-thiazole-5-carboxamide], the IC50 was 0.61 nM.

Consider `CC(NC(=O)c1cnc(N2CCC(N3CCC[C@@H](C)C3)C(F)C2)s1)c1cc(F)ccc1F` (mixture of isomers) [Example 117, diamix-N-[1-(2,5-Difluorophenyl)ethyl]-2-[(3R)-3′-fluoro-3-methyl[1,4′-bipiperidin]-1′-yl]-1,3-thiazole-5-carboxamide], for which the IC50 was determined as 0.65 nM.

Take `O=C(NCc1ncc(F)cc1F)c1cnc(N2CCC(N3CCCC(CC4CC4)C3)CC2)s1` (racemic) [Example 3, 2-[3-(Cyclopropylmethyl)[1,4′-bipiperidin]-1′-yl]-N-[(3,5-difluoropyridin-2-yl)methyl]-1,3-thiazole-5-carboxamide (racemate)]: the half-maximal inhibitory concentration (IC50) amounted to 2.9 nM.

With `O=C(NCc1ncc(F)cc1F)c1cnc(N2CCC(N3CCCC(C(F)F)C3)CC2)s1` (racemic) [Example 4, 2-[3-(difluoromethyl)[1,4′-bipiperidin]-1′-yl]-N-[(3,5-difluoropyridin-2-yl)methyl]-1,3-thiazole-5-carboxamide (racemate)], the IC50 is 169 nM.

`O=C(NCc1ncc(F)cc1F)c1cnc(N2CCC(N3CCCC(C(F)(F)F)C3)CC2)s1` (racemic) [Example 5, N-[(3,5-difluoropyridin-2-yl)methyl]-2-[3-(trifluoromethyl)[1,4′-bipiperidin]-1′-yl]-1,3-thiazole-5-carboxamide (racemate)]: the IC50 turned out to be 335 nM.

In the case of `O=C(NCc1ncc(F)cc1F)c1cnc(N2CCC(N3CCCC(CF)C3)CC2)s1` (racemic) [Example 6, N-[(3,5-difluoropyridin-2-yl)methyl]-2-[3-(fluoromethyl)[1,4′-bipiperidin]-1′-yl]-1,3-thiazole-5-carboxamide (racemate)], the IC50 worked out at 335 nM.

As for `O=C(NCc1ncc(F)cc1F)c1cnc(N2CCC(N3CCCC(OCC4CC(F)(F)C4)C3)CC2)s1` (racemic) [Example 7, 2-{3-[(3,3-difluorocyclobutyl)methoxy][1,4′-bipiperidin]-1′-yl}-N-[(3,5-difluoropyridin-2-yl)methyl]-1,3-thiazole-5-carboxamide (racemate)], the IC50 turned out to be 49.6 nM.

`O=C(NCc1ncc(F)cc1F)c1cnc(N2CCC(N3CCCC(OC(F)F)C3)CC2)s1` (racemic) [Example 16, 2-[3-(Difluoromethoxy)[1,4′-bipiperidin]-1′-yl]-N-[(3,5-difluoropyridin-2-yl)methyl]-1,3-thiazole-5-carboxamide (racemate)]: the IC50 amounted to 2000 nM.

With `CCC1CCCN(C2CCN(c3ncc(C(=O)NCc4ncc(F)cc4F)s3)CC2)C1` (racemic) [Example 17, N-[(3,5-Difluoropyridin-2-yl)methyl]-2-(3-ethyl[1,4′-bipiperidin]-1′-yl)-1,3-thiazole-5-carboxamide (racemate)], the IC50 is 26.5 nM.

As to `COCC1CCCN(C2CCN(c3ncc(C(=O)NCc4ncc(F)cc4F)s3)CC2)C1` (racemic) [Example 48, rac-N-[(3,5-Difluoropyridin-2-yl)methyl]-2-[3-(methoxymethyl)[1,4′-bipiperidin]-1′-yl]-1,3-thiazole-5-carboxamide], the IC50 was determined as 17 nM.

`CC1CCCN(C2CCN(c3ncc(C(=O)NCc4ncc(F)cc4F)s3)CC2)CC1` (racemic) [Example 53, rac-N-[(3,5-Difluoropyridin-2-yl)methyl]-2-[4-(4-methylazepan-1-yl)piperidin-1-yl]-1,3-thiazole-5-carboxamide]: the IC50 turned out to be 110 nM.

In the case of `CC1CCCCN(C2CCN(c3ncc(C(=O)NCc4ncc(F)cc4F)s3)CC2)C1` (racemic) [Example 54, rac-N-[(3,5-Difluoropyridin-2-yl)methyl]-2-[4-(3-methylazepan-1-yl)piperidin-1-yl]-1,3-thiazole-5-carboxamide], the IC50 amounted to 230 nM.

Take `O=C(NCc1ncc(F)cc1F)c1cnc(N2CCC(N3CCCC(COCC(F)(F)F)C3)CC2)s1` (racemic) [Example 59, rac-N-[(3,5-Difluoropyridin-2-yl)methyl]-2-{3-[(2,2,2-trifluoroethoxy)methyl][1,4′-bipiperidin]-1′-yl}-1,3-thiazole-5-carboxamide]: the IC50 came to 11 nM.

Consider `O=C(NCc1ncc(F)cc1F)c1cnc(N2CCC(N3CCCC(COCC4(CF)CC4)C3)CC2)s1` (racemic) [Example 60, rac-N-[(3,5-Difluoropyridin-2-yl)methyl]-2-[3-({[1-(fluoromethyl)cyclopropyl]methoxy}methyl)[1,4′-bipiperidin]-1′-yl]-1,3-thiazole-5-carboxamide], for which the IC50 was found to be 74 nM.

Take `O=C(NCc1ncc(F)cc1F)c1cnc(N2CCC(N3CCCC(COCC4(C(F)F)CC4)C3)CC2)s1` (racemic) [Example 61, rac-2-[3-({[1-(Difluoromethyl)cyclopropyl]methoxy}methyl)[1,4′-bipiperidin]-1′-yl]-N-[(3,5-difluoropyridin-2-yl)methyl]-1,3-thiazole-5-carboxamide]: the IC50 was found to be 87 nM.

Turning to `O=C(NCc1ncc(F)cc1F)c1cnc(N2CCC(N3CCCC(COCC4(C(F)(F)F)CC4)C3)CC2)s1` (racemic) [Example 62, rac-N-[(3,5-Difluoropyridin-2-yl)methyl]-2-[3-({[1-(trifluoromethyl)cyclopropyl]methoxy}methyl)[1,4′-bipiperidin]-1′-yl]-1,3-thiazole-5-carboxamide], the IC50 worked out at 130 nM.

Turning to `O=C(NCc1ncc(F)cc1F)c1cnc(N2CCC(N3CCCC4(C3)CC4(F)F)CC2)s1` (racemic) [Example 65, rac-2-[4-(1,1-Difluoro-5-azaspiro[2.5]octan-5-yl)piperidin-1-yl]-N-[(3,5-difluoropyridin-2-yl)methyl]-1,3-thiazole-5-carboxamide], the IC50 was 4.5 nM.
